# From patent US8609833B2, “Purine derivatives as adenosine A1 receptor agonists and methods of use thereof” (Inotek Pharmaceuticals Corporation, priority 2004, dated 2013)
# What was measured:
# [1] = target: human recombinant A3 adenosine receptor (Homo sapiens (Human), UniProt P0DMS8); assay: Adenosine A3 receptor binding, displacement of [3H]NECA; details: displacement of specific [3H]NECA binding, HEK cells; geometric mean
# Protocol: (§1) Membranes for radioligand binding experiments were prepared from fresh or frozen cells as described in Klotz et al., Naunyn-Schmiedeberg's Arch. […] The cell suspension was then homogenized in ice-cold hypotonic buffer (5 mM Tris/HCl, 2 mM EDTA, pH 7.4) and the homogenate was spun for 10 minutes (4° C.) at 1,000 g.
# (§2) Nonspecific binding was determined in the presence of 100 μM R-PIA and 1 mM theophylline, respectively. For details see Klotz et al., Naunyn-Schmiedeberg's Arch.
# [2] = target: human recombinant A2A adenosine receptor (Homo sapiens (Human), UniProt P29274); assay: Adenosine A2A receptor binding, displacement of [3H]NECA; details: displacement of specific [3H]NECA binding, CHO cells; geometric mean
# Protocol: as §1, §2
# [3] = target: human recombinant A1 adenosine receptor (Homo sapiens (Human), UniProt P30542); assay: Adenosine A1 receptor binding, displacement of [3H]CCPA; details: for Ki: displacement of specific [3H]CCPA binding, CHO cells, geometric mean; for selectivity for the adenosine A1 receptor: versus human A2A and A3 receptors, Table 1
# Protocol: as §1
# The affinities of selected Purine Derivatives for the adenosine A1 receptor were determined by measuring the displacement of specific [^3H]
# as §2
# male CD rats = assay: Sciatic nerve ligation allodynia, Von Frey Hair test; assay type: in vivo, rat
# Protocol: The rats were then anesthetized via intraperitoneal administration of sodium pentobarbital (50 mg/kg). A skin incision was made at the upper ⅓ and ⅔ left thigh area of each rat and the left sciatic nerve was exposed and freed from the surrounding connective tissue. An 8-0 nylon suture was then used to tightly ligate the left sciatic nerve of each rat so that the dorsal ⅓ to ½ of the nerve thickness was trapped in the ligature. The incision was closed using 4-0 sterile suture.
# male mice [4] = assay: Acute pain model, tail flick assay; assay type: in vivo, mouse; details: 3 mg/kg i.p.
# Protocol: The analgesic effects in mice was measured using an IITC model 33 tail-flick analgesia meter (IITC Inc., Woodland Hills, Calif.) at 0 minutes (baseline control), 5 minutes, 15 minutes, 30 minutes and 60 minutes (in some cases also 90 and 120 minutes) post-treatment. compound or vehicle treatment. Average recoding value of two readings was used for each time point. A baseline for every mouse between 2-4 seconds of latency and a 10-second cut-off time was set for the maximum possible effect of analgesia (% MPE). % MPE was calculated using the following formula: % MPE=[(post-drug value−baseline)/(cut-off time−baseline)]×100.
# male BALB/c mice [5] = assay: Lipopolysaccharide-induced mortality, survival study; assay type: in vivo, mouse; details: 0.03 mg/kg orally 30 min before LPS 55 mg/kg i.p.; followed over 72 h
# Protocol: (§3) Male BALB/c mice (6-8 weeks of age) were used in studies investigating lipopolysaccharide-induced cytokine production and survival. […] Serum was diluted 1:5 prior to being assayed for cytokines using species-specific ELISA kits (R & D Systems) for the chemokine MIP-1α and the cytokine TNF-α levels, which were expressed as pg/mL. […] The survival of the mice was followed over 72 h and expressed as a percentage of surviving mice at each time point. […] N=12-14 per group.
# male Wistar rats = assay: Mechanically induced pain threshold in carrageenan rat model; assay type: in vivo; details: intrathecal, 5.0 mg/kg (FIG. 8); 15-120 min
# Protocol: Male Wistar rats (each weighing between 200-250 g, kept under pathogen-free conditions at 24-25° C. and provided with standard rat chow and water ad libitum) were anaesthetized via intraperitoneal administration of pentobarbital (50 mg/kg) and placed in a stereotaxic frame. The atlanto-occipital membrane was exposed and a PE-10 catheter (7.5 cm) was inserted through an incision into the subarachnoidal space. The external end of the catheter was then fixed to the skull, the wound was closed, and the rats were allowed to recover for 7 days post-surgery. Animals without neurological deficits were placed in a plexiglass observation chamber on a metal mesh surface and mechanical thresholds of the plantar surface of the paw were determined using a Dynamic Plantar Aesthesiometer (Ugo Basile, Italy) as follows: Following acclimation, the touch stimulator unit was placed under the animal's paw such that the filament was positioned under the target area of the paw. The filament was then lifted such that it contacted the pad of the animal's paw and continually exerted an increasing upward force on the paw until the animal withdrew the paw. The paw withdrawal threshold was measured 5 times in this manner in turns and the mean of the 5 values was calculated. […] Three hours after the carrageenan administration, the threshold values were measured again.
# BALB/C mice = assay: Allodynia in streptozotocin model of diabetic neuropathy; assay type: in vivo, mouse; details: 1 mg/kg; 15, 30, 60 min after administration
# Protocol: BALB/C mice (6-8 weeks of age) were intraperitoneally administered streptozotocin (40 mg/kg, once per day for 5 consecutive days) to induce diabetes (blood glucose levels were greater than […]).
# male BALB/c mice [6] = assay: Lipopolysaccharide-induced cytokine production (septic shock model); assay type: in vivo, mouse; details: 0.03 mg/kg orally 30 min before LPS 1 mg/kg i.p.; measured 90 min after LPS
# Protocol: as §3
# adult male Wistar rats = assay: Effect on heart rate in anesthetized rats; assay type: in vivo, rat
# Excerpt: Adult male Wistar rats (each weighing from about 350 g to about 400 g) were anesthetized as in Example 19, then prepared for monitoring of blood pressure and heart rate.
# [7] = system: isolated perfused rat hearts; assay: Function recovery after global ischemia/reperfusion in isolated perfused rat hearts; details: 1 nM, infused 10 min before 30 min no-flow ischemia, 40 min reperfusion
# Protocol: Male Sprague-Dawley rats (having a body weight of 250 to 300 g) were heparinized using sodium heparin (1,000 U/kg i.p.), followed 10 minutes later by introduction of anesthesia via intraperitoneal administration of sodium pentobarbital (40 mg/kg). Once the animal was anesthetized, the thorax was opened, and the heart was rapidly removed and perfused through the ascending aorta using Krebs-Ringer buffer consisting of NaCl (118 mmol/liter), KCl (4.75 mmol/liter), KH2PO4 (1.18 mmol/liter), MgSO4 (1.18 mmol/liter), CaCl2 (2.5 mmol/liter), NaHCO3 (25 mmol/liter), and glucose (11 mmol/liter). A mixture of 95% O2 and 5% CO2 at 37° C. was bubbled through the perfusate. The heart was initially perfused at a constant pressure of 70 mm Hg. About 10 min after the constant pressure perfusion, perfusion was switched to constant flow perfusion achieved using a microtube pump. The perfusion pressure was maintained at the same level of constant pressure perfusion by adjusting flow rate. Once the flow rate was determined, it was maintained throughout the experiment. The hearts were stimulated by rectangular pulses at a rate of 5 Hz and 2-millisecond duration and twice the diastolic threshold, delivered from a stimulus isolation unit (ADInstruments Ltd, Australia). Rat hearts were initially perfused at a constant pressure of 70 mm Hg using the procedure described above in section 6.12.1. […]
# male mice [8] = assay: Formalin pain model; assay type: in vivo, mouse; details: 1.0 mg/kg i.p.
# Protocol: Male mice (each having a body weight of 20-30 g) were subcutaneously administered 20 μl of a 1% formalin solution in formaldehyde (prepared by diluting a commercial 4% [w/v] stock formalin solution) into the dorsal region of their left hind paw. […] Both groups of animals were monitored for a reaction for 30 minutes post-treatment to determine how much time each animal spends licking the treated paw. The licking time in control group (vehicle pretreated animals) was then compared to the licking time in the treatment group in order to calculate the analgesic effect. The 30 minute reaction period was divided into two phases: an early phase which lasts from 0-5 minutes post-treatment, and a late phase which lasts from 10-30 minutes post-treatment.
# [9] = system: isolated perfused rat hearts; assay: Ischemia-induced arrhythmias in isolated perfused rat hearts (LAD ligation)
# Protocol: Male Sprague-Dawley rats (having a body weight of 250 to 300 g) were heparinized using sodium heparin (1,000 U/kg i.p.), followed 10 minutes later by introduction of anesthesia via intraperitoneal administration of sodium pentobarbital (40 mg/kg). Once the animal was anesthetized, the thorax was opened, and the heart was rapidly removed and perfused through the ascending aorta using Krebs-Ringer buffer consisting of NaCl (118 mmol/liter), KCl (4.75 mmol/liter), KH2PO4 (1.18 mmol/liter), MgSO4 (1.18 mmol/liter), CaCl2 (2.5 mmol/liter), NaHCO3 (25 mmol/liter), and glucose (11 mmol/liter). A mixture of 95% O2 and 5% CO2 at 37° C. was bubbled through the perfusate. The heart was initially perfused at a constant pressure of 70 mm Hg. About 10 min after the constant pressure perfusion, perfusion was switched to constant flow perfusion achieved using a microtube pump. The perfusion pressure was maintained at the same level of constant pressure perfusion by adjusting flow rate. Once the flow rate was determined, it was maintained throughout the experiment. The hearts were stimulated by rectangular pulses at a rate of 5 Hz and 2-millisecond duration and twice the diastolic threshold, delivered from a stimulus isolation unit (ADInstruments Ltd, Australia). Rat hearts were perfused at constant pressure of 70 mmHg without pacing as described above. Bipolar epicardial electrocardiogram (ECG) was recorded by placing two electrodes on the surface of right appendage and apex. A stainless steel cannula was used as indifferent electrode. The ECG and heart rate were continuously monitored and data were recorded using a PowerLab data acquisition system (ADInstruments Ltd, Australia) in conjunction with a Macintosh computer, and analyzed using Chart.3 computer package. After a 20-minute equilibration period, regional ischemia was induced by ligation of the left anterior descending (LAD) coronary artery, and the ligature was released 30 minutes after occlusion. […] The incidences of ventricular tachycardia (VT) were almost same in control non-treated (12/12) and in treated hearts (20/22). […]
# Sequence of human recombinant A3 adenosine receptor (P0DMS8 whole entry): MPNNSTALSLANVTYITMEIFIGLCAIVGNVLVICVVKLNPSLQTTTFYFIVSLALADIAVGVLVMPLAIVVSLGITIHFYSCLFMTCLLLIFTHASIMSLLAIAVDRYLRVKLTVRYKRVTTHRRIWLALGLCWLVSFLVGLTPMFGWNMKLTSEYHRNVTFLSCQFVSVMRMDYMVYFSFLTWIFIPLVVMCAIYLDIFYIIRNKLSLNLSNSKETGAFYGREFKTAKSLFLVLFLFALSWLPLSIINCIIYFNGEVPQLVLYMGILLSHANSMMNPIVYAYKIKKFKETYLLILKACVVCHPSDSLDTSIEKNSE
# Sequence of human recombinant A2A adenosine receptor (P29274 whole entry): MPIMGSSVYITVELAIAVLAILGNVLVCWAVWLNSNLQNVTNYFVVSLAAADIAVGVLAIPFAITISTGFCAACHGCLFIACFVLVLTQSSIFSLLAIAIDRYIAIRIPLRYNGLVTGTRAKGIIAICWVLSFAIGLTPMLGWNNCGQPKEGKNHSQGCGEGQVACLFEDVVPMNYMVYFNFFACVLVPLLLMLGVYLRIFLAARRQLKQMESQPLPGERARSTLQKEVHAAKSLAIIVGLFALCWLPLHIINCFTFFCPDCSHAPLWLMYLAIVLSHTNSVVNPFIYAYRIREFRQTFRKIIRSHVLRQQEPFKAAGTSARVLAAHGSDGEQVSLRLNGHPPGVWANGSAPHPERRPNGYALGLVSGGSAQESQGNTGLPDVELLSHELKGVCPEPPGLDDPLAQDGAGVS
# Sequence of human recombinant A1 adenosine receptor (P30542 whole entry): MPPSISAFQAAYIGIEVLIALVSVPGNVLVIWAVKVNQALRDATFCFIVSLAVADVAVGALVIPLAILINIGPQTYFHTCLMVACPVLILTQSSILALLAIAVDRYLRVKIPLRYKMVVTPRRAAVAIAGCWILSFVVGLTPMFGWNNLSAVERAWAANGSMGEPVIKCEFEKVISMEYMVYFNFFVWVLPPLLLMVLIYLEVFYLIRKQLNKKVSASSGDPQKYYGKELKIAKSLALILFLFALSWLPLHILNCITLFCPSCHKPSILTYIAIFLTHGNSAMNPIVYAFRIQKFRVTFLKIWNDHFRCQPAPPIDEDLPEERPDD
smiles,measurement,setting,value
Nc1ncnc2c1ncn2[C@@H]1O[C@H](CO[N+](=O)[O-])[C@@H](O)[C@H]1O [Compound 18],Ki,[1],216 nM
same,Ki,[2],951 nM
same,Ki,[3],5.79 nM
same,selectivity for the adenosine A1 receptor,[3],selective for the adenosine A1 receptor
O=[N+]([O-])OC[C@H]1O[C@@H](n2cnc3c(NC4CCCC4)ncnc32)[C@H](O)[C@@H]1O [Compound 17],"analgesic effect on allodynia, alone",male CD rats; 0.1 mg/kg alone,exerts an analgesic effect
same,"analgesic effect on allodynia, in combination with buprenorphine",male CD rats; 0.1 mg/kg co-administered with buprenorphine 0.3 mg/kg,exerts an analgesic effect
same,Ki,[1],704 nM
same,"analgesic effect, tail flick (% MPE)",male mice [4],exerts a analgesic effect
same,lipopolysaccharide-induced mortality,male BALB/c mice [5],reduces
same,paw withdrawal (pain) threshold,male Wistar rats,effective for raising the pain threshold
same,analgesic effect on allodynia,BALB/C mice,marked and lasting analgesic effect
same,lipopolysaccharide-induced plasma MIP-1α production,male BALB/c mice [6],reduces
same,lipopolysaccharide-induced plasma TNF-α production,male BALB/c mice [6],reduces
same,heart rate,"adult male Wistar rats; 10 ng/kg/minute i.v. for 20 minutes, lowered from 440 beats per minute",370 beats per minute
same,heart rate,"adult male Wistar rats; 1000 ng/kg/minute i.v. for 20 minutes, reduced from 440 beats per minute",150 beats per minute
same,+dp/dtmax (maximal rate of development of left ventricular pressure),[7],significantly improved
same,Ki,[2],4690 nM
same,"analgesic effect, paw licking time, late phase (10-30 min)",male mice [8],exhibits an analgesic effect during the late phase
same,response in first phase of formalin test,male mice [8]; early phase 0-5 min,no response
same,total duration of both VT and VF,[9]; 30 and 100 pM,significantly shortened
same,incidence of ventricular fibrillation (VF),"[9]; treated hearts (2/22), 10, 30 and 100 pM, non-treated 58% (7/12)",9%
same,incidence of ventricular tachycardia (VT),"[9]; treated hearts, 10, 30 and 100 pM, non-treated 12/12",20/22
O=[N+]([O-])OC[C@H]1O[C@@H](n2cnc3c(NC4CCOC4)ncnc32)[C@H](O)[C@@H]1O (stereo partly drawn) [Compound 25],Ki,[1],2020 nM
same,Ki,[2],> 100000 nM
same,selectivity for the adenosine A1 receptor,[3],selective for the adenosine A1 receptor
O=[N+]([O-])OC[C@H]1O[C@@H](n2cnc3c(NC4CCCC4)nc(Cl)nc32)[C@H](O)[C@@H]1O [Compound 16],Ki,[2],4190 nM
Nc1nc(Cl)nc2c1ncn2[C@@H]1O[C@H](CO[N+](=O)[O-])[C@@H](O)[C@H]1O [Compound 19],Ki,[1],900 nM
same,Ki,[2],10000 nM
same,Ki,[3],7 nM
same,selectivity for the adenosine A1 receptor,[3],selective for the adenosine A1 receptor
